“And” between values parts separate entries of the source, which are not always exact repeats. Equal values may be shown once.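 Grown in 96-well plates, cells were treated for 48 hours with each compound at five concentrations. Insufficient inhibition: endpoint recorded as highest concentration tested. At the GI50, growth is halved. At the TGI there is no net growth.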
How the values were obtained:
Test in all cases: NCI tumour cell line growth inhibition, 48 h
A549 NSCLC = test system: A549 NSCLC
EKVX NSCLC = test system: EKVX NSCLC
HCT-15 colon = test system: HCT-15 colon
HT29 colon = test system: HT29 colon
M14 melanoma = test system: M14 melanoma
MALME-3M melanoma = test system: MALME-3M melanoma
NCI-H23 lung = test system: NCI-H23 lung
OVCAR-5 ovarian = test system: OVCAR-5 ovarian
OVCAR-8 ovarian = test system: OVCAR-8 ovarian
SF-268 CNS = test system: SF-268 CNS
SK-MEL-28 melanoma = test system: SK-MEL-28 melanoma
SK-MEL-5 melanoma = test system: SK-MEL-5 melanoma

| Structure (SMILES) | TGI (A549 NSCLC) | TGI (EKVX NSCLC) | TGI (HCT-15 colon) | TGI (HT29 colon) | TGI (M14 melanoma) [µM] | TGI (MALME-3M melanoma) | TGI (NCI-H23 lung) | TGI (OVCAR-5 ovarian) | TGI (OVCAR-8 ovarian) | TGI (SF-268 CNS) | TGI (SK-MEL-28 melanoma) [µM] | TGI (SK-MEL-5 melanoma) | GI50 (A549 NSCLC) | GI50 (HCT-15 colon) | GI50 (SF-268 CNS) | GI50 (SK-MEL-5 melanoma) | GI50 (EKVX NSCLC) [µM] | GI50 (M14 melanoma) [µM] |
| --- | --- | --- | --- | --- | --- | --- | --- | --- | --- | --- | --- | --- | --- | --- | --- | --- | --- | --- |
| COc1ccc(/C(O)=C/c2nc3cccnc3nc2/C=C(\O)c2ccc(OC)cc2)cc1 | 39.6 µM | 82.1 µM | > 100 µM | 79.3 µM | 69.2 | 52.2 µM | 30.7 µM | > 100 µM | 35.6 µM | 28.6 µM | 69 | 78.3 µM | – | – | – | – | – | – |
| CC(=O)NC(CCC(=O)C=[N+]=N)C(=O)O (stereo unspecified) | > 100 µM | > 100 µM | > 100 µM | > 100 µM | > 100 | > 100 µM | > 100 µM | > 100 µM | > 100 µM | > 100 µM | > 100 | > 100 µM | – | – | – | – | – | – |
| Cc1oc2c(Cl)cc(O)c(Cl)c2c2cccc1-2 | > 100 µM | 54.6 µM | 75.4 µM | > 100 µM | > 100 | 53.1 µM | 44.1 µM | > 100 µM | 82.6 µM | > 100 µM | 57.5 | 52.1 µM | – | – | – | – | – | – |
| [O-][n+]1ccccc1S | 38.5 µM | > 100 µM | > 100 µM | 2.32 µM | > 100 | 89.1 µM | > 100 µM | > 100 µM | > 100 µM | > 100 µM | > 100 | 30.9 µM | – | – | – | – | – | – |
| O=S(=O)(O)c1ccc(N=Nc2c(O)ccc3cc(Br)ccc23)cc1 | > 100 µM | > 100 µM | > 100 µM | > 100 µM | > 100 | > 100 µM | > 100 µM | > 100 µM | > 100 µM | > 100 µM | > 100 | > 100 µM | – | – | – | – | – | – |
| CNC(=O)SCC(N)C(=O)O (stereo unspecified) | > 100 µM | > 100 µM | > 100 µM | > 100 µM | – | > 100 µM | > 100 µM | > 100 µM | > 100 µM | > 100 µM | > 100 | > 100 µM | – | – | – | – | – | – |
| Cc1ccc(-c2cc(C(F)(F)F)nn2-c2ccc(S(N)(=O)=O)cc2)cc1 | > 52.6 µM | 54.4 µM | > 56.6 µM | > 55.5 µM | > 60 | 46.6 µM | 37.7 µM | > 59.8 µM | > 62.8 µM | > 55.8 µM | > 56.2 | 32.6 µM | – | – | – | – | – | – |
| CC1CCC2(C(=O)O)CCC3(C)C(=CCC4C5(C)CCC(O)C(C)(C)C5CCC43C)C2C1C (stereo unspecified) | 21.4 µM and > 100 µM | 23.2 µM and 28.6 µM | 15.4 µM and 26.6 µM | 22.9 µM and 37.7 µM | 4.28 | 25.6 µM and 28.9 µM | 24.4 µM and 34.3 µM | 19.6 µM and 23.2 µM | 21 µM and 35.2 µM | 17.7 µM and 24.6 µM | – | 50.8 µM and 23.8 µM | 10.1 µM and 26.4 µM | 5.53 µM and 13.3 µM | 1.29 µM and 10.7 µM | 26.4 µM and 11.3 µM | – | – |
| CCCC(=O)NC1CCc2cc(OC)c(OC)c(OC)c2-c2ccc(OC)c(=O)cc21 (stereo unspecified) | > 100 µM | > 100 µM | 25.5 µM | 0.125 µM | > 100 | > 100 µM | – | – | > 100 µM | > 100 µM | > 100 | – | – | 0.011 µM | – | – | > 100 | > 100 |
| CC1CC[C@@]2(OC1)OC1CC3C4CCC5C[C@@H](OC6OC(CO)C(OC7OC(CO)C(O)C(OC8OC(CO)C(O)C(OC9OC(CO)C(O)C(O)C9O)C8O)C7OC7OC(CO)C(O)C(O)C7O)C(O)C6O)[C@H](O)C[C@]5(C)C4CC[C@]3(C)C1[C@@H]2C (stereo partly specified) | > 80.5 µM | > 80.5 µM | > 80.5 µM | > 80.5 µM | > 80.5 | > 80.5 µM | > 80.5 µM | > 80.5 µM | > 80.5 µM | > 80.5 µM | > 80.5 | > 80.5 µM | – | – | – | – | – | – |
| CCC(=O)c1ccc2[nH]c3c(C)c4c(=O)cc(C)[nH]c4c(C)c3c2c1 | > 100 µM | > 100 µM | > 100 µM | > 100 µM | > 100 | > 100 µM | > 100 µM | > 100 µM | > 100 µM | > 100 µM | > 100 | > 100 µM | – | – | – | – | – | – |
| CC(=O)O[C@H]1/C(=C/c2ccncc2)C[C@H]2[C@@H]3CC=C4C[C@@H](N5CCCC5)CC[C@]4(C)[C@H]3CC[C@]12C | 26.8 µM | 29 µM | 24.7 µM | 14.1 µM | 23.8 | 28 µM | 30.7 µM | 27.2 µM | 28.2 µM | 30.2 µM | 26 | 21.1 µM | – | – | – | – | – | – |

Source: PubChem BioAssay (NCI)
